Values joined by “and” are separate entries in the source; they are usually repeats but may differ in a detail not shown here. Equal entries are not always repeated.
Legend:
Experiment in all cases: radiometric filter-binding kinase assay, Kinase HotSpot
Conditions in all cases: compound 0.5 µM; ATP 10 µM
[1] = target: ACVR1B (human) (UniProt P36896)
[2] = target: CAMK1 (human) (UniProt Q14012)
[3] = target: CAMK2D (human) (UniProt Q13557)
[4] = target: CDC42BPA (human) (UniProt Q5VT25)
[5] = target: CDK7 CCNH MNAT1 (human) (UniProt P50613+P51948+P51946)
[6] = target: CDK9 CCNK (human) (UniProt O75909+P50750)
[7] = target: CDK9 CCNT1 (human) (UniProt P50750+O60563)
[8] = target: CSK (human) (UniProt P41240)
[9] = target: CSNK1G3 (human) (UniProt Q9Y6M4)
[10] = target: DAPK1 (human) (UniProt P53355)
[11] = target: DMPK (human) (UniProt Q09013)
[12] = target: DYRK2 (human) (UniProt Q92630)
DYRK2 (human), sequence (Q92630 whole entry, looked up): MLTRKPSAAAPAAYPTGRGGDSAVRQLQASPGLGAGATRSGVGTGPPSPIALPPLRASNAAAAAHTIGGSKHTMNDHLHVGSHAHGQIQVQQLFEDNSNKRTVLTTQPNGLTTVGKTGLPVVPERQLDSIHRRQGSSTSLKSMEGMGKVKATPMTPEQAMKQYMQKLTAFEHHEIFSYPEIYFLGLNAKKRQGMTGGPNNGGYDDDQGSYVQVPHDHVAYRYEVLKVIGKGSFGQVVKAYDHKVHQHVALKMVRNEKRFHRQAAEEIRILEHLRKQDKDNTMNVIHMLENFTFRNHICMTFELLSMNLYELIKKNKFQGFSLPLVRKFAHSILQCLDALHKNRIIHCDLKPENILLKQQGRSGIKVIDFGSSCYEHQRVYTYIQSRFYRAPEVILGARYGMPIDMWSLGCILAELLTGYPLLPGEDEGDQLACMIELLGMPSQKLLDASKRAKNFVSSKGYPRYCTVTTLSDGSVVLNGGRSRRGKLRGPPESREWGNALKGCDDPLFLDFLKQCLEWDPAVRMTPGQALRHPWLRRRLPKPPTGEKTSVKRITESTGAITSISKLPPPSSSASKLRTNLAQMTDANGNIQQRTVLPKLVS

[13] = target: EPHA4 (human) (UniProt P54764)
[14] = target: FGFR3 (human) (UniProt P22607)
[15] = target: FLT1 (human) (UniProt P17948)
FLT1 (human), sequence (P17948 whole entry, looked up): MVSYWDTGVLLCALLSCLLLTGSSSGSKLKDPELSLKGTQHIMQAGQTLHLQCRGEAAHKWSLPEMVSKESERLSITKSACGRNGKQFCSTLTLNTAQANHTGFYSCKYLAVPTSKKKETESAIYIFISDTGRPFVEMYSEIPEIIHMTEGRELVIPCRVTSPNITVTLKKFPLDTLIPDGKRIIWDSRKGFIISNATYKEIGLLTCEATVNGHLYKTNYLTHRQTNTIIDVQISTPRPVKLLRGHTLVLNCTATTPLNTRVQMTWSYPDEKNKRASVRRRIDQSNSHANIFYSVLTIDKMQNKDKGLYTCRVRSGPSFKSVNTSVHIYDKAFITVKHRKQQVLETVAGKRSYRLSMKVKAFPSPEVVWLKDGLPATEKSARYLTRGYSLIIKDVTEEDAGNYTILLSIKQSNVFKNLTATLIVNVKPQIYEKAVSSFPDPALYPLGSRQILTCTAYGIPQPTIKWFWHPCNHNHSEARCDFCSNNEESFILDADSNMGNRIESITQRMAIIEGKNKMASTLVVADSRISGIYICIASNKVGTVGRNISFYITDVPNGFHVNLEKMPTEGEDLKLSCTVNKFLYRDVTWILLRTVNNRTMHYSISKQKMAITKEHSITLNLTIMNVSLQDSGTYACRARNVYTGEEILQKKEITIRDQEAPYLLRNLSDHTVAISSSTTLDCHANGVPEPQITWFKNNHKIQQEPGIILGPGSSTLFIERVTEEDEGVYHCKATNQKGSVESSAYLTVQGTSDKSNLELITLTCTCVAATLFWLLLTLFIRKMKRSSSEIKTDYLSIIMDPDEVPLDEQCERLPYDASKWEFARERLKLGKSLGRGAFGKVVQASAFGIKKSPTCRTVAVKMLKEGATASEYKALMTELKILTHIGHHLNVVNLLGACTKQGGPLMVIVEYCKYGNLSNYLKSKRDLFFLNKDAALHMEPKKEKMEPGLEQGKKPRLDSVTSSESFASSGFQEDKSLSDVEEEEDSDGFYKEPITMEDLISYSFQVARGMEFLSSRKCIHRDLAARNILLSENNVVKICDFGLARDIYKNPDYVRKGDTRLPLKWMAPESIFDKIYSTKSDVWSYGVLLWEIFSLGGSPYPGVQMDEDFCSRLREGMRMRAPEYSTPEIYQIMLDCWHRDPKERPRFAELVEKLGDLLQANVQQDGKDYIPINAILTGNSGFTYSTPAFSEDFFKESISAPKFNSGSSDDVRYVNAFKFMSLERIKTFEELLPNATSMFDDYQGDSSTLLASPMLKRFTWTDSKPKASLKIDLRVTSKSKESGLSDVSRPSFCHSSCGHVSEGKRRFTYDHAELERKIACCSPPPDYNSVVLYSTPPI

[16] = target: GSK3A (human) (UniProt P49840)
[17] = target: JAK1 JH1 catalytic (human) (UniProt P23458)
JAK1 JH1 catalytic (human), sequence (P23458 whole entry, looked up): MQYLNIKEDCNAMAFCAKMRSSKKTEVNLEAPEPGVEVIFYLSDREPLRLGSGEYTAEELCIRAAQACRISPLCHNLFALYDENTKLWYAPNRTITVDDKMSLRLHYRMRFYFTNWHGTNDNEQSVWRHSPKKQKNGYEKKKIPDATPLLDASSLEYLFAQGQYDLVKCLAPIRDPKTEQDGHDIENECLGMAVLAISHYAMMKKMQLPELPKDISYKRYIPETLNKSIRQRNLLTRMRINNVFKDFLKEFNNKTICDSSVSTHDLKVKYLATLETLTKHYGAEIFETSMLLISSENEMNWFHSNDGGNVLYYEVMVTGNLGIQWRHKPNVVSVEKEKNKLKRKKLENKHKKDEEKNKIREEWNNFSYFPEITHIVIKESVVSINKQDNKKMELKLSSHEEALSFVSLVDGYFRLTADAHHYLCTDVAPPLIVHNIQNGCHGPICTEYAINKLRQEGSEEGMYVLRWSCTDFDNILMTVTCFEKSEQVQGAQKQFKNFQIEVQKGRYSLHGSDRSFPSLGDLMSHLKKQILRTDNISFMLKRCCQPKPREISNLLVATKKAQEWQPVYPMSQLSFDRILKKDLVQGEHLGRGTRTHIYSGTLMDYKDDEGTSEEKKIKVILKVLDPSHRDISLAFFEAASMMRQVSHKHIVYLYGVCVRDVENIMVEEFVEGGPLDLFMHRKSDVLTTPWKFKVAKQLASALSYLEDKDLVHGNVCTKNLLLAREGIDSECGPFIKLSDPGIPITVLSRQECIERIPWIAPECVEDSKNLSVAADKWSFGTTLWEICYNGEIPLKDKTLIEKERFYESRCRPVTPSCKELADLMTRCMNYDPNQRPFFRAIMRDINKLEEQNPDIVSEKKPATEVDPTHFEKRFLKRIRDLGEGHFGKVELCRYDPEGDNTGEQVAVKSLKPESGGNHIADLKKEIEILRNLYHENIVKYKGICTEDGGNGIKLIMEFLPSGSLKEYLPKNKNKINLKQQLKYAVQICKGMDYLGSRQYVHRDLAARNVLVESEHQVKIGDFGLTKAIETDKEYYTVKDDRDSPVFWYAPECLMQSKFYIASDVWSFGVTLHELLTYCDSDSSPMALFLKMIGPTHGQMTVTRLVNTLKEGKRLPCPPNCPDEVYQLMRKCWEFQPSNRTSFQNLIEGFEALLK

[18] = target: LCK (human) (UniProt P06239)
[19] = target: LYN (human) (UniProt P07948)
[20] = target: MAP3K14 (human) (UniProt Q99558)
[21] = target: MAP3K8 (human) (UniProt P41279)
[22] = target: MAPKAPK5 (human) (UniProt Q8IW41)
MAPKAPK5 (human), sequence (Q8IW41 whole entry, looked up): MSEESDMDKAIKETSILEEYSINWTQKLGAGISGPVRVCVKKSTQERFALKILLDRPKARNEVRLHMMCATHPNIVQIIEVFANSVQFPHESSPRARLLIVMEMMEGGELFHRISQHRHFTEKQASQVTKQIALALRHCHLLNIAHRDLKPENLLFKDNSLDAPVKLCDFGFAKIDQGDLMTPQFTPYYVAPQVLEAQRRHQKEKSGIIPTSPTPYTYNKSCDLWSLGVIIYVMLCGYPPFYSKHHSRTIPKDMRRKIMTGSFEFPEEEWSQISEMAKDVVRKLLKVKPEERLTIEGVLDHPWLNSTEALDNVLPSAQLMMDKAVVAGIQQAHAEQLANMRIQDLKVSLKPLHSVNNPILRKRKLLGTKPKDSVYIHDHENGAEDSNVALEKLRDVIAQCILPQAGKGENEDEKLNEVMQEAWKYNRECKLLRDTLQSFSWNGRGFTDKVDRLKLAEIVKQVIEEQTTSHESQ

[23] = target: MARK1 (human) (UniProt Q9P0L2)
[24] = target: MERTK (human) (UniProt Q12866)
[25] = target: NTRK3 (human) (UniProt Q16288)
[26] = target: NUAK1 (human) (UniProt O60285)
[27] = target: NUAK2 (human) (UniProt Q9H093)
[28] = target: PAK3 (human) (UniProt O75914)
[29] = target: PDGFRA (human) (UniProt P16234)
[30] = target: PHKG1 (human) (UniProt Q16816)
[31] = target: PKN1 (human) (UniProt Q16512)
[32] = target: PNCK (human) (UniProt Q6P2M8)
PNCK (human), sequence (Q6P2M8 whole entry, looked up): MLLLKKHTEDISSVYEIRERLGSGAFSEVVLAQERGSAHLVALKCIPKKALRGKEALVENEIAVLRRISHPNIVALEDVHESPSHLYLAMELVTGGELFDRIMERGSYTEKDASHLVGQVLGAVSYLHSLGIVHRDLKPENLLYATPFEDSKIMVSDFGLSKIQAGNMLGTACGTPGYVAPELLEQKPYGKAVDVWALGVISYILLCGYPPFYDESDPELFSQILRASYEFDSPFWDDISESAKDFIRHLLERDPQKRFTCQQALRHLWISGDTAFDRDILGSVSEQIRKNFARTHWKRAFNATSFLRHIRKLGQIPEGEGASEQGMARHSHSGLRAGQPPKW

[33] = target: PRKACA (human) (UniProt P17612)
[34] = target: PRKCH (human) (UniProt P24723)
[35] = target: PTK2 (human) (UniProt Q05397)
[36] = target: PTK2B (human) (UniProt Q14289)
[37] = target: SRPK3 (human) (UniProt Q9UPE1)
[38] = target: STK3 (human) (UniProt Q13188)
[39] = target: TEC (human) (UniProt P42680)
[40] = target: TSSK2 (human) (UniProt Q96PF2)
[41] = target: WEE1 (human) (UniProt P30291)
[42] = target: PAK2 (human) (UniProt Q13177)

ACVR1B (human), sequence (P36896 whole entry, looked up): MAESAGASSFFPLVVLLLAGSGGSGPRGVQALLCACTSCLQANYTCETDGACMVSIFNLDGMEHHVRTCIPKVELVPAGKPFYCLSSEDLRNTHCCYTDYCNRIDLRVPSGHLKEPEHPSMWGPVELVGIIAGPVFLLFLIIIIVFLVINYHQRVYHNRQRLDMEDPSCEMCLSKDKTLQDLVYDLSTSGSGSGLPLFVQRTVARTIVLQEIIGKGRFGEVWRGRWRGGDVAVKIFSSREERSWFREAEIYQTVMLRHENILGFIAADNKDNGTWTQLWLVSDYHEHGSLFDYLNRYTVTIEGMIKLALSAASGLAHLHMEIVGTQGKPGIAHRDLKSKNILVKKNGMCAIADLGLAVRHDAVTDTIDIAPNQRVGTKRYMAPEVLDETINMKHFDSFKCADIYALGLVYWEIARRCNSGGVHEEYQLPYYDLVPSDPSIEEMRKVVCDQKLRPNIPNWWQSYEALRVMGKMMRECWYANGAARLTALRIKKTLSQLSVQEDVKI
CAMK1 (human), sequence (Q14012 whole entry, looked up): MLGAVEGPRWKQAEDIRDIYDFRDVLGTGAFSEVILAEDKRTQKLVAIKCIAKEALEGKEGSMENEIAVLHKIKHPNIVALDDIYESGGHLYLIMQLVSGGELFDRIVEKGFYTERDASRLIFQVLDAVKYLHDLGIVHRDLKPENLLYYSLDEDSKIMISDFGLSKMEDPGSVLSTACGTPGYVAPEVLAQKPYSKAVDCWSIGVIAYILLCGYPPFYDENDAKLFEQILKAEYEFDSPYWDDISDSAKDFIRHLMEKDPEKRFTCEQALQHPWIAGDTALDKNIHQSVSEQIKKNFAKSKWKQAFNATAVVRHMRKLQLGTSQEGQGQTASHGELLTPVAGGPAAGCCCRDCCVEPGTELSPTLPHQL

## O=C1Nc2ccccc2/C1=C\c1c(Cl)[nH]c2ccccc12
[1]
  residual activity: 105%
[2]
  residual activity: 106%
[3]
  residual activity: 86.7%
[4]
  residual activity: 95.7%
[5]
  residual activity: 99.7%
[6]
  residual activity: 98.3%
[7]
  residual activity: 98.4%
[8]
  residual activity: 101%
[9]
  residual activity: 92.8%
[10]
  residual activity: 88.1%
[11]
  residual activity: 101%
[12]
  residual activity: 103%
[13]
  residual activity: 93.4%
[14]
  residual activity: 101%
[15]
  residual activity: 88.6%
[16]
  residual activity: 99.3%
[17]
  residual activity: 96.6%
[18]
  residual activity: 95.5%
[19]
  residual activity: 93.6% and 99.7%
[20]
  residual activity: 92.6%
[21]
  residual activity: 94.3%
[22]
  residual activity: 121%
[23]
  residual activity: 96%
[24]
  residual activity: 88.2%
[25]
  residual activity: 92.9%
[26]
  residual activity: 86%
[27]
  residual activity: 106%
[28]
  residual activity: 98.8%
[29]
  residual activity: 88.7%
[30]
  residual activity: 85.4%
[31]
  residual activity: 94.6%
[32]
  residual activity: 92.9%
[33]
  residual activity: 102%
[34]
  residual activity: 73.6%
[35]
  residual activity: 101%
[36]
  residual activity: 95.5%
[37]
  residual activity: 97.1%
[38]
  residual activity: 89.1%
[39]
  residual activity: 124%
[40]
  residual activity: 113%
[41]
  residual activity: 107%

## Nc1nc(Nc2ccc(S(N)(=O)=O)cc2)nn1C(=O)c1c(F)cccc1F
[1]
  residual activity: 118%
[2]
  residual activity: 90.4%
[3]
  residual activity: 94.6%
[4]
  residual activity: 97.5%
[5]
  residual activity: 81.1%
[6]
  residual activity: 27.4%
[7]
  residual activity: 27.6%
[8]
  residual activity: 88.9%
[10]
  residual activity: 93.8%
[11]
  residual activity: 93.2%
[12]
  residual activity: 112%
[13]
  residual activity: 91.3%
[14]
  residual activity: 46.4%
[15]
  residual activity: 90.7%
[16]
  residual activity: 9.59%
[17]
  residual activity: 5.19%
[18]
  residual activity: 87.9%
[19]
  residual activity: 103% and 80.5%
[20]
  residual activity: 106%
[21]
  residual activity: 94.4%
[22]
  residual activity: 80.3%
[23]
  residual activity: 64.1%
[24]
  residual activity: 70.2%
[25]
  residual activity: 37.6%
[26]
  residual activity: 3.29%
[27]
  residual activity: 34%
[29]
  residual activity: 82%
[30]
  residual activity: 102%
[31]
  residual activity: 89.7%
[32]
  residual activity: 107%
[33]
  residual activity: 98.8%
[34]
  residual activity: 100%
[35]
  residual activity: 95.5%
[36]
  residual activity: 79.7%
[37]
  residual activity: 86.2%
[38]
  residual activity: 34.3%
[39]
  residual activity: 122%
[40]
  residual activity: 103%
[41]
  residual activity: 83.6%

## COc1cc2ncnc(Nc3ccc(F)c(Cl)c3)c2cc1OCCCN1CCOCC1
[1]
  residual activity: 99.6%
[2]
  residual activity: 102%
[3]
  residual activity: 92.4%
[4]
  residual activity: 87.8%
[5]
  residual activity: 105%
[6]
  residual activity: 99.3%
[7]
  residual activity: 87.3%
[8]
  residual activity: 95.4%
[9]
  residual activity: 103%
[10]
  residual activity: 109%
[11]
  residual activity: 90.1%
[12]
  residual activity: 98.2%
[13]
  residual activity: 90.2%
[14]
  residual activity: 79.3%
[15]
  residual activity: 98.3%
[16]
  residual activity: 99.7%
[17]
  residual activity: 102%
[19]
  residual activity: 57.1% and 67.8%
[20]
  residual activity: 104%
[21]
  residual activity: 95.7%
[22]
  residual activity: 92.7%
[23]
  residual activity: 116%
[24]
  residual activity: 95.9%
[25]
  residual activity: 103%
[26]
  residual activity: 99.1%
[27]
  residual activity: 96%
[42]
  residual activity: 100%
[28]
  residual activity: 106%
[29]
  residual activity: 97%
[30]
  residual activity: 68.8%
[31]
  residual activity: 105%
[32]
  residual activity: 108%
[33]
  residual activity: 96.3%
[35]
  residual activity: 103%
[36]
  residual activity: 98.9%
[37]
  residual activity: 103%
[38]
  residual activity: 93.6%
[39]
  residual activity: 104%
[40]
  residual activity: 91.5%
[41]
  residual activity: 93.8%

## C#Cc1cccc(Nc2ncnc3cc(OCCOC)c(OCCOC)cc23)c1
[1]
  residual activity: 101%
[2]
  residual activity: 98.9%
[3]
  residual activity: 95.1%
[4]
  residual activity: 88.5%
[5]
  residual activity: 107%
[6]
  residual activity: 102%
[7]
  residual activity: 87.3%
[8]
  residual activity: 100%
[9]
  residual activity: 106%
[10]
  residual activity: 103%
[11]
  residual activity: 96.9%
[15]
  residual activity: 87.5%
[16]
  residual activity: 99.3%
[17]
  residual activity: 91.2%
[19]
  residual activity: 72.5% and 75.4%
[21]
  residual activity: 91.8%
[22]
  residual activity: 89.7%
[23]
  residual activity: 130%
[24]
  residual activity: 99%
[25]
  residual activity: 96%
[26]
  residual activity: 98%
[27]
  residual activity: 95.3%
[42]
  residual activity: 99.1%
[28]
  residual activity: 106%
[29]
  residual activity: 84.4%
[30]
  residual activity: 93.2%
[31]
  residual activity: 108%
[32]
  residual activity: 103%
[33]
  residual activity: 93.4%
[34]
  residual activity: 116%
[35]
  residual activity: 108%
[36]
  residual activity: 97.6%
[37]
  residual activity: 101%
[38]
  residual activity: 94.9%
[39]
  residual activity: 96.2%
[40]
  residual activity: 87.6%
[41]
  residual activity: 95.2%

## CC(C)(C)c1nc2c3ccc(F)cc3c3c(=O)[nH]ccc3c2[nH]1
[2]
  residual activity: 79.3%
[3]
  residual activity: 59.4%
[4]
  residual activity: 95.7%
[5]
  residual activity: 92.8%
[6]
  residual activity: 92.3%
[7]
  residual activity: 100%
[8]
  residual activity: 114%
[9]
  residual activity: 105%
[10]
  residual activity: 3.03%
[11]
  residual activity: 105%
[12]
  residual activity: 62.5%
[13]
  residual activity: 101%
[14]
  residual activity: 93%
[15]
  residual activity: 92.3%
[16]
  residual activity: 121%
[17]
  residual activity: 2.54%
[19]
  residual activity: 101% and 95.9%
[20]
  residual activity: 71.3%
[21]
  residual activity: 128%
[22]
  residual activity: 88.1%
[23]
  residual activity: 40.2%
[24]
  residual activity: 79.4%
[25]
  residual activity: 6.81%
[26]
  residual activity: 3.04%
[27]
  residual activity: 66%
[42]
  residual activity: 88.8%
[28]
  residual activity: 90.1%
[29]
  residual activity: 92.1%
[30]
  residual activity: 34.5%
[31]
  residual activity: 28.3%
[32]
  residual activity: 112%
[33]
  residual activity: 97.9%
[34]
  residual activity: 81.5%
[35]
  residual activity: 35.3%
[36]
  residual activity: 48.4%
[37]
  residual activity: 58.6%
[38]
  residual activity: 5.45%
[39]
  residual activity: 106%
[40]
  residual activity: 92.5%
[41]
  residual activity: 87.4%

Source: the kinase profiling compilation of Christmann-Franck et al. (2016)
